From US20240199582A1, “INHIBITORS OF POLY(ADP-RIBOSE) POLYMERASE” (RHIZEN PHARMACEUTICALS AG, priority 2021, published 2024) come the findings set out here.

Data set [1] concerns BRCA mutant and non-BRCA mutant cancer cell lines. In words: Cell proliferation assay to determine GI50 in BRCA mutant and non-BRCA mutant cancer cell lines. In kind it is cell-based. As to conditions: range over BRCA mutant and non-BRCA mutant cancer cell lines; treatment 72, 120 or 144 hours. The procedure:
On Day “0” the test cells were plated in 100 μL/well in complete media in a 96-well plate in triplicates and plates were incubated at 37° C. and 5% CO2. On Day 1, 10 μL of MTT (5 mg/ml) were added to the column designated for Day “0”. It was mixed well and incubated at 37° C. and 5% CO2 for 3.5 h. Cells were pelleted down at 4000 rpm for 10 minutes. Media was aspirated out and 150 μL of DMSO were added to the cells and mixed by pipetting to dissolve the crystals. Plate was read at A560 nm and A640. DMSO dilutions of the inhibitors (Compound 1 or Compound 1D) were diluted to 3× of required concentration in growth medium. Cells in each well were treated with 50 μL of complete media containing inhibitor. DMSO concentration in the well was 0.1%. Plates were incubated at 37° C. and 5% CO2 as required for 144 hours. 15 μL of MTT (5 mg/mL) was added to the wells. Plates were incubated at 37° C. and 5% CO2 for 3.5 hours. After incubation, cells are pelleted down at 4000 rpm for 10 min. Media was aspirated and 150 μL of DMSO per well were added to dissolve the formazan crystals. Plate was read at A560 nm and A640. […]
Cancer cell lines were plated at desired density in their respective complete media and incubated overnight at 37° C. and 5% CO2. […] At the end of the treatment period, cell viability was measured and GI50 values were calculated.

A short description of data set [2]: Rat pharmacokinetics (oral and IV), plasma by LC-MS/MS. In kind it is in vivo, rats (Wistar rat strains). As to conditions: for AUC(0-t): Compound 1 prepared by Method 2, Compound 1D prepared by Method 2, read-out: AUC0-24. The protocol: The oral bioavailability of Compound 1 and its salts were evaluated in rats. The protocol for the pharmacokinetic (PK) studies in rats is provided below.
Formulation 1: Polysorbate 80 (10% v/v)+Methyl Cellulose (MC) (0.5% w/v) • 1. 200 mg^#of the test compound was weighed and transferred into a mortar. • 2. 1.0 mL of polysorbate 80 (10% v/v of the final suspension) was added to the mortar and the test item was triturated to afford a smooth paste. • 3. 9.0 mL of 0.5% methyl cellulose (4000 cps) was added and triturated to afford a fine suspension. • 4. The final strength of the formulation was 20.0 mg/mL. #For salts of the test compound in order to achieve the equivalent dose level on a molar basis as the free base, a correction factor was used based on the salt and purity. Formulation 2: Propylene Glycol (40% v/v)+60% Methyl Cellulose (MC) (0.5% w/v) • 1. 1400 mg #of the test compound was weighed and transferred into a glass beaker. • 2. 28.0 mL of propylene glycol (1,2-popanediol) (40% v/v of the final volume) was added to the glass beaker and sonicated for 20 min to dissolve. (strength is 50 mg/mL) • 3. At the time of dosing, 20 mL of propylene glycol (50.0 mg/mL) and 30.0 mL of 0.5% methyl cellulose (4000 cps) were mixed with continuous stirring to afford a clear solution • 4. The final strength of the formulation was 20.0 mg/mL. • #For salts of the test compound in order to achieve the equivalent dose level on a molar basis as the free base, a correction factor was used based on the salt and purity.
(§1) Protocol: All animals (mice (BALB/c mice), rats (Wistar rat strains), and dogs (beagle, non-naïve)) were fasted overnight (12 hours) before dosing and continued till 4.0 hours after administration of test item. The blood samples (all collections each of 150 μL from each animal) were collected according to the sampling schedule from orbital sinus or jugular vein into the micro centrifuge tube containing dipotassium EDTA as an anticoagulant. Blood samples were centrifuged immediately with a speed of 4000 RPM for 10 min at 4° C. and separated plasma samples were frozen at below −80° C. and stored until analysis. The plasma concentrations of test item in all samples were analysed by LC-MS/MS method Pharmacokinetic parameters viz. Cmax, AUC0-t, AUC0-∞, Tmax, and t½, were estimated by using WinNonlin software.

Data set [3] in a line: Mice pharmacokinetics (IV and oral), plasma by LC-MS/MS. In kind it is in vivo, mice (BALB/c mice). The protocol:
as §1

The nature of data set [4]: Dog pharmacokinetics (IV and oral), plasma by LC-MS/MS. In kind it is in vivo, dogs (beagle, non-naïve). The protocol:
as §1

Setting [5] is: Wistar, plasma, oral, 100 mg/kg, Formulation 1: Polysorbate 80 (10% v/v) + MC (0.5% w/v), Compound 1 prepared by Method 2, Compound 1D prepared by Method 2.
Where [6] appears, read: Wistar, plasma, oral, 100 mg/kg, Formulation 1: Polysorbate 80 (10% v/v) + MC (0.5% w/v).
The mark [7] stands for this setting: Wistar, plasma, oral, 100 mg/kg, Formulation 1: Polysorbate 80 (10% v/v) + MC (0.5% w/v), Compound 1 prepared by Method 2, Compound 1D prepared by Method 2, read-out: Tmax.
The mark [8] stands for this setting: oral, 100 mg/kg, Formulation 1: Polysorbate 80 (10% v/v) + MC (0.5% w/v), Compound 1 prepared by Method 2, Compound 1D prepared by Method 2.
The mark [9] stands for this setting: oral, 100 mg/kg, Formulation 1: Polysorbate 80 (10% v/v) + MC (0.5% w/v), Compound 1 prepared by Method 2, Compound 1D prepared by Method 2, 100 mg/kg.
[10] abbreviates: oral, 100 mg/kg, Formulation 1: Polysorbate 80 (10% v/v) + MC (0.5% w/v), Compound 1C prepared by Method 1.
The mark [11] stands for this setting: oral, 100 mg/kg, Formulation 1: Polysorbate 80 (10% v/v) + MC (0.5% w/v), Compound 1C prepared by Method 2.
Setting [12] is: oral, 100 mg/kg, Formulation 2: PG (40% v/v) + 60% MC (0.5% w/v), Compound 1D prepared by Method 2.
Setting [13] is: oral, 100 mg/kg, Formulation 2: PG (40% v/v) + 60% MC (0.5% w/v), Compound 1D prepared by Method 3.

For orientation: GI50 means the concentration giving 50% growth inhibition. One may read the Cmax as the peak of the concentration-time curve. As usually defined, the Tmax is the time at which the peak concentration occurs. What is called melting point is the temperature, or range, at which the solid turns liquid. Take `C[C@]1(O)C(=O)N(c2cncc(Cc3n[nH]c(=O)c4ccccc34)c2)c2ccccc21` [Compound 1, (R)-(+)-4-((5-(3-Hydroxy-3-methyl-2-oxoindolin-1-yl)pyridin-3-yl)methyl)phthalazin-1(2H)-one]: the melting point lay within 110 to 113 °C. The molecule also had a GI50 in data set [1] of 0.043 to 19.8 µM. In data set [2] (setting [5]), the Cmax was found to be 2.56 µM. Also, in data set [2] (setting [6]), the AUC(0-t) was 7.81 µM·h. In addition, the Tmax in data set [2] (setting [7]) was determined as 30 min.

On to `C[C@]1(O)C(=O)N(c2cncc(Cc3n[nH]c(=O)c4ccccc34)c2)c2ccccc21.Cl` [Compound 1A, (R)-(+)-4-((5-(3-Hydroxy-3-methyl-2-oxoindolin-1-yl)pyridin-3-yl)methyl)phthalazin-1(2H)-one, hydrochloride], for which the melting point is 226 to 228 °C. In addition, the Cmax in data set [2] (setting [5]) was 4.38 µM. The AUC(0-t) in data set [2] (setting [6]) amounted to 23.3 µM·h. In addition, the Tmax in data set [2] (setting [7]) stood at 15 min.

For the molecule `C[C@]1(O)C(=O)N(c2cncc(Cc3n[nH]c(=O)c4ccccc34)c2)c2ccccc21.O=S(=O)(O)c1ccccc1` [Compound 1B, (R)-(+)-4-((5-(3-hydroxy-3-methyl-2-oxoindolin-1-yl)pyridin-3-yl)methyl)phthalazin-1(2H)-one, benzene sulfonate], in data set [2] (setting [8]), the AUC0-24 amounted to 32.43 µM·h and the Tmax came to 30 min. In addition, the Cmax in data set [2] (setting [9]) was 17.2 µM.

Consider `C[C@]1(O)C(=O)N(c2cncc(Cc3n[nH]c(=O)c4ccccc34)c2)c2ccccc21.Cc1ccc(S(=O)(=O)O)cc1` [Compound 1C, (R)-(+)-4-((5-(3-hydroxy-3-methyl-2-oxoindolin-1-yl)pyridin-3-yl)methyl)phthalazin-1(2H)-one, 4-methylbenzene sulfonate], for which, in data set [2] (setting [10]), the AUC0-24 turned out to be 39.98 µM·h, the Cmax worked out at 11.9 µM and the Tmax turned out to be 30 min. For the same molecule, in data set [2] (setting [11]), the AUC0-24 was 23.09 µM·h, the Cmax was found to be 10.5 µM and the Tmax was determined as 15 min.

As for `CS(=O)(=O)O.C[C@]1(O)C(=O)N(c2cncc(Cc3n[nH]c(=O)c4ccccc34)c2)c2ccccc21` [Compound 1D, (R)-(+)-4-((5-(3-Hydroxy-3-methyl-2-oxoindolin-1-yl)pyridin-3-yl)methyl)phthalazin-1(2H)-one, methane sulfonate], the AUC0-24 in data set [3] (IV, 1 mg/kg) was 1.12 µM·h; in data set [3] (oral, 10 mg/kg) it was 5.64 µM·h; in data set [2] (IV, 1 mg/kg) it was 1.18 µM·h; in data set [2] (oral, 10 mg/kg), 8.96 µM·h; in data set [2] (setting [8]), 34.71 µM·h; in data set [2] (setting [12]), 135.36 µM·h. Besides, the AUC0-24 in data set [2] (setting [13]) amounted to 139.36 µM·h; in data set [4] (IV, 1 mg/kg), 2.73 µM·h; in data set [4] (oral, 20 mg/kg) it was 57.05 µM·h. The C0 in data set [3] (IV, 1 mg/kg) came out at 3.12 µM; in data set [2] (IV, 1 mg/kg), 5.25 µM; in data set [4] (IV, 1 mg/kg) it was 4.11 µM. Moreover, the Cmax in data set [3] (IV, 1 mg/kg) amounted to 2.87 µM; in data set [3] (oral, 10 mg/kg), 7.62 µM; in data set [2] (IV, 1 mg/kg), 4.47 µM; in data set [2] (oral, 10 mg/kg), 8.43 µM; in data set [2] (setting [9]), 13 µM; in data set [2] (setting [12]), 55.6 µM. In addition, the Cmax in data set [2] (setting [13]) was 53.7 µM; in data set [4] (IV, 1 mg/kg), 3.47 µM; in data set [4] (oral, 20 mg/kg) it was 22.9 µM. The Tmax in data set [3] (oral, 10 mg/kg) was 15 min; in data set [2] (oral, 10 mg/kg), 22.8 min; in data set [2] (setting [8]) it was 15 min; in data set [2] (setting [12]), 30 min; in data set [2] (setting [13]), 30 min; in data set [4] (oral, 20 mg/kg), 30 min.
